Test results taken from ChEMBL document CHEMBL5365543, “Benzamidine Conjugation Converts Expelled Potential Active Agents into Antifungals against Drug-Resistant Fungi” (J Med Chem, 2023).
Converted amounts (≈) assume the structure as drawn. The source made the active and inactive calls. The rule behind the calls is not given here.

What was measured:
[1] = test system: Candida albicans; assay: Antifungal activity against wild-type Candida albicans SC5314 assessed as inhibition of fungal growth measured after 24 hrs by CLSI based microtiter plate analysis; type: functional; settings: for MIC80: Candida albicans
[2] = Drug accumulation in wild-type Candida albicans SC5314 at 50 microg/ml incubated for 3 hrs by HPLC analysis; type: ADME; settings: dose 50 µg/ml
[3] = test system: Candida albicans; assay: Induction of drug resistance in wild-type Candida albicans SC5314 assessed as change in MIC at 0.5 times of MIC measured after 30 passages by broth microdilution method; type: functional
[4] = test system: Candida albicans; assay: microbe, parasite or virus in culture; type: functional; settings: DSY654, time 24 hrs
Description: Antifungal activity against efflux pump-deficient Candida albicans DSY654 assessed as inhibition of fungal growth measured after 24 hrs by CLSI based microtiter plate analysis

[5] = Cytotoxicity against mouse L929 cells assessed as inhibition of cell growth measured after 4 hrs by MTT assay; type: toxicity, cell-based
[6] = Induction of hemolysis in mouse RBC cells at 2 to 32 microg/ml incubated for 60 mins by absorbance based analysis; type: toxicity, cell-based, Erythrocyte; settings: red blood cells (erythrocytes), at 2 to 32 µg/mL, dose 2-32 µg/ml, read-out: Activity
[7] = Cytotoxicity against human HBE cells assessed as inhibition of cell growth measured after 4 hrs by MTT assay; type: toxicity, cell-based
[8] = test system: Candida albicans; assay: Drug accumulation in Candida albicans SC5314 measured per 10^8 cells incubated for 3 hrs by HPLC analysis; type: functional, organism-based
[9] = test system: Candida albicans; assay: Antifungal activity against clinical isolate fluconazole-resistant Candida albicans DSY296 harbouring TAC1 mutation overexpressing efflux pump CdrL and Cdr2 assessed as inhibition of fungal growth measured after 24 hrs by CLSI based microtiter plate analysis; type: functional
[10] = test system: Candida albicans; assay: Antifungal activity against clinical isolate Candida albicans SCUPC2R14MPG2A harbouring UPC2 mutation overexpressing […] Erg11 assessed as inhibition of fungal growth measured after 24 hrs by CLSI based microtiter plate analysis; type: functional
[11] = test system: Candida albicans; assay: Antifungal activity against clinical isolate fluconazole-resistant Candida albicans CA632 assessed as inhibition of fungal growth measured after 24 hrs by CLSI based microtiter plate analysis; type: functional
[12] = test system: Candida albicans; assay: Antifungal activity against clinical isolate fluconazole-resistant Candida albicans G5 harbouring MRR1 mutation overexpressing MdrL assessed as inhibition of fungal growth measured after 24 hrs by CLSI based microtiter plate analysis; type: functional
[13] = test system: Candida albicans; assay: Antifungal activity against clinical isolate Candida albicans YEM15 overexpressing efflux pump CdrL and Cdr2 assessed as inhibition of fungal growth measured after 24 hrs by CLSI based microtiter plate analysis; type: functional
[14] = test system: Cryptococcus neoformans; assay: Antifungal activity against clinical isolate fluconazole-resistant Cryptococcus neoformans H99 assessed as inhibition of fungal growth measured after 24 hrs by CLSI based microtiter plate analysis; type: functional
[15] = test system: Candida albicans; assay: Antifungal activity against clinical isolate Candida albicans YEM13 overexpressing efflux pump MdrL assessed as inhibition of fungal growth measured after 24 hrs by CLSI based microtiter plate analysis; type: functional
[16] = test system: [Candida] auris; assay: Antifungal activity against clinical isolate fluconazole-resistant Candida auris CBS12776 assessed as inhibition of fungal growth measured after 24 hrs by CLSI based microtiter plate analysis; type: functional; settings: Candidozyma auris
[17] = test system: Candida tropicalis; assay: Antifungal activity against clinical isolate fluconazole-resistant Candida tropicalis CT10 assessed as inhibition of fungal growth measured after 24 hrs by CLSI based microtiter plate analysis; type: functional
[18] = test system: [Candida] auris; assay: Antifungal activity against clinical isolate fluconazole-resistant Candida auris CBS12774 assessed as inhibition of fungal growth measured after 24 hrs by CLSI based microtiter plate analysis; type: functional; settings: Candidozyma auris
[19] = test system: Candida albicans; assay: Antifungal activity against clinical isolate Candida albicans SCMRRIR34MPG2A harbouring MRR1 mutation overexpressing efflux pump MdrL assessed as inhibition of fungal growth measured after 24 hrs by CLSI based microtiter plate analysis; type: functional
[20] = test system: Candida albicans; assay: Antifungal activity against clinical isolate fluconazole-resistant Candida albicans Gu5 harbouring TAC1 mutation overexpressing efflux pump CdrL and Cdr2 assessed as inhibition of fungal growth measured after 24 hrs by CLSI based microtiter plate analysis; type: functional
[21] = test system: Nakaseomyces glabratus; assay: Antifungal activity against clinical isolate fluconazole-resistant Candida glabrata CG2 assessed as inhibition of fungal growth measured after 24 hrs by CLSI based microtiter plate analysis; type: functional
[22] = Drug accumulation in Candida albicans YEM15 expressing efflux pump CdrL and Cdr2 at 20 microg/ml incubated for 2 hrs by flow cytometery analysis; type: ADME; settings: dose 20 µg/ml
[23] = Drug accumulation in wild-type Candida albicans SC5314 at 20 microg/ml incubated for 2 hrs by flow cytometery analysis; type: ADME; settings: dose 20 µg/ml
[24] = Drug accumulation in Candida albicans YEM13 expressing efflux pump MdrL at 20 microg/ml incubated for 2 hrs by flow cytometery analysis; type: ADME; settings: dose 20 µg/ml
[25] = Drug accumulation in Candida albicans TOM70-GFP-CAI4 at 20 microg/ml incubated for 30 mins by confocal laser scanning microscopic analysis; type: ADME; settings: 0.5 h, dose 20 µg/ml
[26] = test system: Candida albicans; assay: Antifungal activity against Candida albicans assessed as inhibition of fungal growth measured after 24 hrs by CLSI based microtiter plate analysis; type: functional
[27] = test system: Cell membrane; assay: Disruption of membrane integrity in Candida albicans SC5314 at 16 to 32 microg/ml incubated for 1 hr by Sytox green staining based fluorescence method; type: subcellular; settings: dose 16-32 µg/ml
[28] = Drug accumulation in Candida albicans SC5314 by confocal laser scanning microscopic analysis; type: ADME
[29] = Drug localization in mitochondria of Candida albicans SC5314 incubated for 30 mins by MitoTracker dye based confocal laser scanning microscopic analysis; type: ADME; settings: 0.5 h

SMILES | MIC80 ([1]; SC5314, read-out: MIC80) | Drug uptake [2] | MIC80 [4] | IC50 at 4 h [5] | hemolysis at 1 h [6] | IC50 at 4 h [7] | MIC80 [9] | MIC80 [10] | MIC80 ([1]; SC5314, 24 h, read-out: MIC80) | MIC80 [11] | MIC80 [12] | MIC80 [13] | MIC80 [14] | MIC80 [15] | MIC80 [16] | MIC80 [17] | MIC80 [18] | MIC80 [19] | MIC80 [20] | MIC80 [21] | other results
N=C(N)c1ccc(OCCCOC(=O)c2ccccc2Nc2cccc(C(F)(F)F)c2)cc1 | 8 µg/mL (≈ 17.5 µM) | Active |  |  |  |  |  |  |  |  |  |  |  |  |  |  |  |  |  |  | Activity [3]: Active
C=C1C[C@@]23CC[C@H]4[C@@](C)(CCC[C@@]4(C)C(=O)OCCCc4c5[n+](cc6c(OC)c(OC)ccc46)CCc4cc6c(cc4-5)OCO6)[C@@H]2CC[C@]1(O)C3.[I-] | 8 µg/mL |  | 4 µg/mL | 1.32 µg/mL | < 2% | 4.79 µg/mL |  |  |  |  |  |  |  |  |  |  |  |  |  |  | 
C=C1C[C@@]23CC[C@H]4[C@@](C)(CCC[C@@]4(C)C(=O)O)[C@@H]2CC[C@]1(O)C3 [STEVIOL] | > 256 µg/mL |  | 256 µg/mL (≈ 804 µM) |  |  |  |  |  |  |  |  |  |  |  |  |  |  |  |  |  | MIC [4]: 256 µg/mL (≈ 804 µM); Drug uptake [8]: inactive
C=C1C(=O)[C@@]23CC[C@H]4[C@@](C)(CCC[C@@]4(C)C(=O)OCCCOc4ccc(C(=N)N)cc4)[C@@H]2CC[C@]1(O)C3 |  | Active |  |  |  |  | 4 µg/mL (≈ 7.86 µM) | 4 µg/mL (≈ 7.86 µM) | 4 µg/mL (≈ 7.86 µM) | 4 µg/mL (≈ 7.86 µM) | 4 µg/mL (≈ 7.86 µM) | 4 µg/mL (≈ 7.86 µM) | 8 µg/mL (≈ 15.7 µM) | 4 µg/mL (≈ 7.86 µM) | 8 µg/mL (≈ 15.7 µM) | 4 µg/mL (≈ 7.86 µM) | 8 µg/mL (≈ 15.7 µM) | 8 µg/mL (≈ 15.7 µM) | 8 µg/mL (≈ 15.7 µM) | 8 µg/mL (≈ 15.7 µM) | 
C=C1C[C@@]23CC[C@H]4[C@@](C)(CCC[C@@]4(C)C(=O)OCCCCC[n+]4c(C)cc(N)c5ccccc54)[C@@H]2CC[C@]1(O)C3.[I-] | 8 µg/mL |  | 4 µg/mL | 8.34 µg/mL | < 2% | 6.53 µg/mL |  |  |  |  |  |  |  |  |  |  |  |  |  |  | 
CCN(CC)c1ccc2c(-c3ccccc3C(=O)N3CCN(Cc4cn(CCCOc5ccc(C(=N)N)cc5)nn4)CC3)c3ccc(=[N+](CC)CC)cc-3oc2c1.[Cl-] |  |  |  |  | < 2% |  |  |  |  |  |  |  |  |  |  |  |  |  |  |  | Drug uptake [22]: Active; Drug uptake [23]: Active; Drug uptake [24]: Active; Drug uptake [25]: Active; MIC [26]: > 128 µg/mL; Activity [27]: inactive; Drug uptake [28]: Active; Drug uptake [29]: Active
Cc1ccc(Sc2ccccc2N2CCN(CCCOc3ccc(C(=N)N)cc3)CC2)c(C)c1 |  | Active |  |  |  |  | 4 µg/mL (≈ 8.43 µM) | 4 µg/mL (≈ 8.43 µM) | 4 µg/mL (≈ 8.43 µM) | 4 µg/mL (≈ 8.43 µM) | 8 µg/mL (≈ 16.9 µM) | 4 µg/mL (≈ 8.43 µM) | 4 µg/mL (≈ 8.43 µM) | 4 µg/mL (≈ 8.43 µM) | 8 µg/mL (≈ 16.9 µM) | 4 µg/mL (≈ 8.43 µM) | 8 µg/mL (≈ 16.9 µM) | 4 µg/mL (≈ 8.43 µM) | 4 µg/mL (≈ 8.43 µM) | 8 µg/mL (≈ 16.9 µM) | MIC [1]: inactive
C=C1C[C@@]23CC[C@H]4[C@@](C)(CCC[C@@]4(C)C(=O)OCCC[P+](c4ccccc4)(c4ccccc4)c4ccccc4)[C@@H]2CC[C@]1(O)C3.[I-] | 16 µg/mL |  | 16 µg/mL | 6.94 µg/mL | 5.9% | 3.59 µg/mL |  |  |  |  |  |  |  |  |  |  |  |  |  |  | 
C=C1C[C@@]2(CC)[C@@H](CC[C@@]2(O)c2cn(CCCOc3ccc(C(=N)N)cc3)nn2)[C@@H]2CCC3=CCCC[C@@H]3[C@@H]12 |  | Active |  |  |  |  | 64 µg/mL (≈ 121 µM) | 64 µg/mL (≈ 121 µM) | 32 µg/mL (≈ 60.4 µM) | 32 µg/mL (≈ 60.4 µM) | 64 µg/mL (≈ 121 µM) | 64 µg/mL (≈ 121 µM) | 64 µg/mL (≈ 121 µM) | 32 µg/mL (≈ 60.4 µM) | 64 µg/mL (≈ 121 µM) | 64 µg/mL (≈ 121 µM) | 64 µg/mL (≈ 121 µM) | 64 µg/mL (≈ 121 µM) | 64 µg/mL (≈ 121 µM) | 64 µg/mL (≈ 121 µM) | MIC [1]: inactive
